Earlier results in patent US20220280598A1, “COMPLEMENT INHIBITOR DOSING REGIMENS” (Apellis Pharmaceuticals, Inc., priority 2019, published 2022).

How the values were obtained:
[1] = test system: complement activation (alternative pathway); details: alternative pathway-mediated erythrocyte lysis assay (WO2004/026328); cited from earlier work
complement activation = details: relative to compstatin amidated at the C-terminus; published data; cited from earlier work

For `CC[C@H](C)[C@H](N)C(=O)N[C@H]1CSSC[C@@H](C(=O)N[C@H](C(N)=O)[C@@H](C)O)NC(=O)[C@H](CCCN=C(N)N)NC(=O)[C@H](Cc2cnc[nH]2)NC(=O)[C@H](Cc2cnc[nH]2)NC(=O)CNC(=O)[C@H](Cc2c[nH]c3ccccc23)NC(=O)[C@H](CC(=O)O)NC(=O)[C@H](CCC(N)=O)NC(=O)[C@H](C(C)C)NC(=O)[C@H](C(C)C)NC1=O` [Compstatin, H-ICVVQDWGHHRCT-CONH2], the IC50 [1] is given as 12 µM.
For Ac-ICVVQDWGHHRCT-CONH2 [Ac-compstatin], the Activity over compstatin (complement activation) is given as 3 × more.
